Assay results: patent US20200224136A1, “INTESTINE-CHIP: DIFFERENTIAL GENE EXPRESSION MODEL” (priority 2019, published 2020)

What was measured:
Ileum-Chip [1] = assay: TNF-α induced inflammation in Ileum-Chip: chemokine release (ELISA) and I-CAM1/MadCAM1 expression; type: cell-based, human; parameters: Apical CXCL11 (1-TAC) / Apical CCL20 (MIP-3 alpha) / Basal CCL25 (TECK) / Basal CXCL8 (IL-8) / Basal CXCLIO (IP-10) / Basal CXCL11 (1-TAC) / Basal CCL20 (MIP-3 alpha) / Apical CCL25 (TECK) / Apical CXCL8 (IL-8) / Apical CXCLIO (IP-10): unit not given here
From the text: (§1) TNFα induces increased membrane expression of I-CAM1 and MadCAM1 in intestinal microvascula endothelium.
(§2) Identification of MadCAM1 and characterization of microvascular response to inflammation in Ileum-Chip. Inflammation-Induced Expression of I-CAM1 and MadCAM1 in Ileum-Chip. Read-outs: mRNA expression of vascular adhesion molecules (I-CAM1, MadCAM1); Immunofluorescent detection of I-CAM1 and MadCAM1; Epithelial and vascular release of inflammatory chemokines using ELISA (Meso Scale Discovery). FIG. 13. FIG. 14.
Summary of Evaluation of Microvascular Function in Ileum-Chip.

[2] = tested on: intestinal microvascular endothelium; assay: TNF-α stimulation of microvasculature alone: chemokine release; type: cell-based, human; parameters: unit not given here; conditions: TNF-α 100 U/ml, n = 1, 4 chips/condition
From the text: as §2

Ileum-Chip [3] = assay: Intestinal barrier function of Ileum-Chip under TNF-α; type: cell-based, human; conditions: vascular exposure, 100 U/ml (~2 ng/ml)
Protocol: As one example, to evaluate the integrity of the intestinal barrier 3 kDa Cascade Blue dextran (Sigma, D7132) was added to the epithelial compartment of the Duodenum-Chip at 0.1 mg/ml on the day of connecting a microfluidic device to flow, e.g., see exemplary timelines. Effluents of the endothelial compartment were sampled 3 hours after the addition of a dye, up to 24 hours, up to 48 hours, up to 72 hours, or at 48 hour intervals until the end of the assay, in order to determine the concentration of dye that has diffused through the membrane.
The apparent paracellular permeability (Papp) was calculated based on a standard curve and using the following formula: […]
as §1

GLUTag Cells = conditions: 250 uM, 36 minutes; Active GLP-1 (ver. 2) Assay Kit (Mesoscale Discovery); cited from earlier work
[4] = tested on: Small Intestinal Organoids; conditions: 30 uM DCA, 2 hours; GLP-1 (Active) assay; cited from earlier work
[5] = tested on: Endoscopic duodenal biopsies; conditions: 300 mM, Intraduodenal Glucose Infusion, 30 min; GLP-1 (Active) ELISA Kit (Millipore); cited from earlier work
[6] = tested on: Mixed primary cultures (Colon); conditions: 10 mM, 2-4 hours; Active GLP-1 ELISA-kit (Millipore); cited from earlier work
[7] = tested on: Mixed primary cultures (upper half of SI); conditions: 10 mM, 2-4 hours; Active GLP-1 ELISA-kit (Millipore); cited from earlier work
[8] = TNF-α 100 U/ml, n = 1, 4 chips/condition

**Q.** Which “membrane expression of I-CAM1 and MadCAM1 in intestinal microvascular endothelium” value (Ileum-Chip [1]; 100 U/ml) does the source give for TNF-α here?
**A.** Its value is “increased”.

**Q.** And the “Apical CCL20 (MIP-3 alpha)” value (Ileum-Chip [1]; [8])?
**A.** Its value is 170.92 ± 36.8.

**Q.** What about the “Apical CCL25 (TECK)” value (Ileum-Chip [1]; [8]) of the same compound?
**A.** The value was 17.11 ± 9.2.

**Q.** And the “Apical CXCL8 (IL-8)” value (Ileum-Chip [1]; [8])?
**A.** Its value is 16.30 ± 5.9.

**Q.** What about the “Apical CXCL11 (1-TAC)” value (Ileum-Chip [1]; [8]) of the same compound?
**A.** Its value is 302.01 ± 111.8.

**Q.** And the “Apical CXCLIO (IP-10)” value (Ileum-Chip [1]; [8])?
**A.** Its value is 6.34 ± 2.3.

**Q.** What about the “Basal CCL20 (MIP-3 alpha)” value (Ileum-Chip [1]; [8]) of the same compound?
**A.** Its value is 93.93 ± 18.3.

**Q.** And the “Basal CCL25 (TECK)” value (Ileum-Chip [1]; [8])?
**A.** Its value is 117.91 ± 16.1.

**Q.** And the “Basal CXCL8 (IL-8)” value (Ileum-Chip [1]; [8])?
**A.** The value was 1868.99 ± 198.7.

**Q.** And the “Basal CXCL11 (1-TAC)” value (Ileum-Chip [1]; [8])?
**A.** Its value is 26.00 ± 9.1.

**Q.** And the “Basal CXCLIO (IP-10)” value (Ileum-Chip [1]; [8])?
**A.** The value was 502.04 ± 287.1.

**Q.** And the “Apical CCL20 (MIP-3 alpha)” value [2]?
**A.** Its value is 0.74 ±0.9.

**Q.** What about the “Apical CXCL8 (IL-8)” value [2] of the same compound?
**A.** Its value is 105.5 ± 74.2.

**Q.** And the “Apical CXCL11 (1-TAC)” value [2]?
**A.** The value was 0.53 ± 1.0.

**Q.** What about the “Apical CXCLIO (IP-10)” value [2] of the same compound?
**A.** Its value is 0.19 ± 0.1.

**Q.** What about the “Basal CCL20 (MIP-3 alpha)” value [2] of the same compound?
**A.** The value was 3.51 ± 2.8.

**Q.** And the “Basal CXCL8 (IL-8)” value [2]?
**A.** The value was 1835.44 ± 282.8.

**Q.** What about the “Basal CXCL11 (1-TAC)” value [2] of the same compound?
**A.** Its value is 1.74 ± 1.4.

**Q.** And the “Basal CXCLIO (IP-10)” value [2]?
**A.** Its value is 35.22 ± 20.1.

**Q.** And the “effect on intestinal barrier function” value (Ileum-Chip [3])?
**A.** The value was “does not affect”.

**Q.** For `CCCCCCCC/C=C\CCCCCCCC(=O)O` [Oleic Acid], which “GLP-1 Concentration (fold increase)” value (GLUTag Cells) is on record?
**A.** The value was 4-fold increase.

**Q.** With `C[C@H](CCC(=O)O)[C@H]1CC[C@H]2[C@@H]3CC[C@@H]4C[C@H](O)CC[C@]4(C)[C@H]3C[C@H](O)[C@]12C` [DCA] as the compound, how does the “GLP-1 Concentration (fold increase)” value [4] read?
**A.** The value was 2.5-fold increase.

**Q.** For `OC[C@H]1OC(O)[C@H](O)[C@@H](O)[C@@H]1O` (stereo partly shown) [Glucose], which “GLP-1 Concentration (fold increase)” value [5] is on record?
**A.** The value was 3-fold increase.

**Q.** What about the “GLP-1 Concentration (fold increase), Colon” value [6] of the same compound?
**A.** Its value is 10-fold increase.

**Q.** What about the “GLP-1 Concentration (fold increase), SI” value [7] of the same compound?
**A.** Its value is “(Colon), 2-fold”.
